Experimental data: patent publication US9512075B2 (OKAYAMA UNIVERSITY, priority 2012, dated 2016)
≈ marks a conversion by molar mass, not a printed value. Like-named read-outs stand apart in the source and are kept apart here.

Columns and labels:
Assay type in all cases: cell-based
[1] = system: Clostridium perfringens PB6K strain; test: microbe, parasite or virus in culture; settings: Clostridium perfringens, PB6KSTRAIN, read-out: MIC Clostridium perfringens PB6K, PB6K strain; CD medium, 37° C. overnight, 10% CO2-containing anaerobic conditions
[2] = system: Escherichia coli BE1121 strain; test: MIC for Escherichia coli BE1121 strain; settings: Escherichia coli, BE1121STRAIN, read-out: MIC Escherichia coli BE1121
[3] = system: Staphylococcus aureus 209P strain; test: MIC for Staphylococcus aureus 209P strain; settings: Staphylococcus aureus, read-out: MIC Straphyrococcus aureus 209P
[4] = system: Staphylococcus aureus Smith strain; test: MIC for Staphylococcus aureus Smith strain; settings: read-out: MIC Straphyrococcus aureus Smith
[5] = system: Clostridium difficile JCM1296 strain; test: microbe, parasite or virus in culture; settings: Clostridioides difficile, JCM1296, read-out: MIC Clostridium difficile JCM1296
[6] = system: Staphylococcus aureus MRSA No. 17 (methicillin-resistant Staphylococcus aureus: MRSA); test: MIC for Staphylococcus aureus MRSA No. 17; settings: read-out: MIC Straphyrococcus aureus MRSA No. 17 (MRSA)
[7] = system: Enterococcus faecalis NCTC12201 strain (vancomycin-resistant Enterococcus: VRE); test: MIC for Enterococcus faecalis NCTC12201 strain (VRE); settings: read-out: MIC Enterococcus faecalis NCTC 12201 (VRE)
[8] = system: Escherichia coli K-12 strain; test: MIC for Escherichia coli K-12 strain; settings: Escherichia coli, K12STRAIN, read-out: MIC Escherichia coli K12
[9] = system: Enterococcus faecalis 5038 strain; test: MIC for Enterococcus faecalis 5038 strain; settings: read-out: MIC Enterococcus faecalis 5038
[10] = BE1121 strain, regular bouillon medium, 37° C. overnight, turbidity
[11] = 209P strain, regular bouillon medium, 37° C. overnight, turbidity
[12] = Smith strain, regular bouillon medium, 37° C. overnight, turbidity
[13] = MRSA No. 17, regular bouillon medium, 37° C. overnight, turbidity
[14] = NCTC12201 strain (VRE), Heart Infusion Broth medium, 37° C. overnight, turbidity
[15] = K-12 strain, regular bouillon medium, 37° C. overnight, turbidity
[16] = 5038 strain, Heart Infusion Broth medium, 37° C. overnight, turbidity

| SMILES | MIC [1] [µg/mL] | MIC [2, 10] [µg/mL] | MIC [3, 11] [µg/mL] | MIC [4, 12] [µg/mL] | MIC [5] [µg/mL] | MIC [6, 13] [µg/mL] | MIC [7, 14] [µg/mL] | MIC [8, 15] [µg/mL] | MIC [9, 16] [µg/mL] | MIC [2] [µg/mL] | MIC ([3]; 209P) [µg/mL] | MIC [8] [µg/mL] | MIC [4] [µg/mL] | MIC ([6]; MRSA) [µg/mL] | MIC [7] [µg/mL] | MIC ([9]; 5038STRAIN) [µg/mL] |
| --- | --- | --- | --- | --- | --- | --- | --- | --- | --- | --- | --- | --- | --- | --- | --- | --- |
| CCCCCCCCCC(=O)N1C(=O)/C(=C(\O)COC)c2cc(F)ccc21 [A050, N-decanoyl-3-methoxyacetyl-5-fluoro-2-oxyindole] | 0.5 (≈ 1.32 µM) | 128 (≈ 339 µM) | 256 (≈ 678 µM) | 0.5 (≈ 1.32 µM) | 0.25 (≈ 0.662 µM) | 256 (≈ 678 µM) | 0.5 (≈ 1.32 µM) | 256 (≈ 678 µM) | 0.5 (≈ 1.32 µM) | – | – | – | – | – | – | – |
| CCCCCCCCCC(=O)N1C(=O)/C(=C(/C)O)c2cc(F)ccc21 [A051, N-decanoyl-3-acetyl-5-fluoro-2-oxyindole] | 8 (≈ 23 µM) | – | – | 0.5 (≈ 1.44 µM) | 1 (≈ 2.88 µM) | 4 (≈ 11.5 µM) | 0.25 (≈ 0.72 µM) | – | 0.5 (≈ 1.44 µM) | 2 (≈ 5.76 µM) | 4 (≈ 11.5 µM) | 56 (≈ 161 µM) | – | – | – | – |
| CCCCCCCCCC(=O)N1C(=O)/C(=C(\O)c2ccccc2)c2cc(F)ccc21 [A052, N-decanoyl-3-benzoyl-5-fluoro-2-oxyindole] | 0.5 (≈ 1.22 µM) | 128 (≈ 313 µM) | 64 (≈ 156 µM) | – | 0.5 (≈ 1.22 µM) | – | – | 256 (≈ 625 µM) | – | – | – | – | 0.5 (≈ 1.22 µM) | 64 (≈ 156 µM) | 0.5 (≈ 1.22 µM) | 0.25 (≈ 0.61 µM) |
| CCCCCCCCCC(O)=C1C(=O)N(C(=O)Nc2ccc(OC(F)(F)F)cc2)c2ccccc21 [A053, N-(4-(trifluoromethoxy)phenylaminocarbonyl)-3-decanoyl-2-oxyindole] | 32 (≈ 65.2 µM) | 128 (≈ 261 µM) | 256 (≈ 522 µM) | 256 (≈ 522 µM) | 16 (≈ 32.6 µM) | 256 (≈ 522 µM) | 128 (≈ 261 µM) | 128 (≈ 261 µM) | 128 (≈ 261 µM) | – | – | – | – | – | – | – |
| CCCCCCCCCC(O)=C1C(=O)N(C(=O)Nc2ccccc2C(F)(F)F)c2ccccc21 [A054, N-(2-(trifluoromethyl)phenylaminocarbonyl)-3-decanoyl-2-oxyindole] | < 0.125 | 256 (≈ 539 µM) | 2 (≈ 4.21 µM) | 0.5 (≈ 1.05 µM) | < 0.125 | 2 (≈ 4.21 µM) | 1 (≈ 2.11 µM) | 256 (≈ 539 µM) | 1 (≈ 2.11 µM) | – | – | – | – | – | – | – |
| CCCCCCCCCCOCC(O)=C1C(=O)N(C(=O)OC(C)(C)C)c2ccc(F)cc21 [A055, N-Boc-3-decyloxyacetyl-5-fluoro-2-oxyindole] | 2 (≈ 4.45 µM) | 256 (≈ 569 µM) | 128 (≈ 285 µM) | 128 (≈ 285 µM) | 0.25 (≈ 0.556 µM) | 128 (≈ 285 µM) | 128 (≈ 285 µM) | 256 (≈ 569 µM) | 128 (≈ 285 µM) | – | – | – | – | – | – | – |
| CCCCCCCCOCC(O)=C1C(=O)N(C(C)=O)c2ccccc21 [A057, N-acetyl-3-octyloxyacetyl-2-oxyindole] | 0.5 (≈ 1.45 µM) | 128 (≈ 371 µM) | 8 (≈ 23.2 µM) | 1 (≈ 2.89 µM) | 0.25 (≈ 0.724 µM) | 16 (≈ 46.3 µM) | 2 (≈ 5.79 µM) | 128 (≈ 371 µM) | 1 (≈ 2.89 µM) | – | – | – | – | – | – | – |
| CCCCCCCCOCC(O)=C1C(=O)N(C(=O)Nc2ccccc2)c2ccccc21 [A058, N-(phenylaminocarbonyl)-3-octyloxyacetyl-2-oxyindole] | < 0.125 | 128 (≈ 303 µM) | 64 (≈ 151 µM) | 0.5 (≈ 1.18 µM) | < 0.125 | 128 (≈ 303 µM) | 0.25 (≈ 0.592 µM) | 128 (≈ 303 µM) | 0.25 (≈ 0.592 µM) | – | – | – | – | – | – | – |
| CCCCCCCCC(O)=C1C(=O)N(C(=O)Nc2ccccc2)c2ccc(F)cc21 [A059, N-(phenylaminocarbonyl)-5-fluoro-3-nonanoyl-2-oxyindole] | 4 (≈ 9.74 µM) | – | – | 0.5 (≈ 1.22 µM) | 8 (≈ 19.5 µM) | 64 (≈ 156 µM) | 25 (≈ 60.9 µM) | – | 0.5 (≈ 1.22 µM) | 256 (≈ 624 µM) | 64 (≈ 156 µM) | 128 (≈ 312 µM) | – | – | – | – |
| CCCCCCCCCC(=O)N1C(=O)C(=C(O)c2ccc(Cl)cc2)c2ccccc21 [A060, N-decanoyl-3-(4-chlorobenzoyl)-2-oxyindole] | 1 (≈ 2.35 µM) | 128 (≈ 301 µM) | 64 (≈ 150 µM) | – | 0.5 (≈ 1.17 µM) | – | – | 128 (≈ 301 µM) | – | – | – | – | 1 (≈ 2.35 µM) | 16 (≈ 37.6 µM) | 1 (≈ 2.35 µM) | 1 (≈ 2.35 µM) |
| CCCCCCCCCC(=O)N1C(=O)C(=C(O)c2ccc(OC)cc2)c2ccccc21 [A062, N-decanoyl-3-(4-methoxybenzoyl)-2-oxyindole] | 8 (≈ 19 µM) | 256 (≈ 607 µM) | 128 (≈ 304 µM) | – | 4 (≈ 9.49 µM) | – | – | 256 (≈ 607 µM) | – | – | – | – | 2 (≈ 4.74 µM) | 16 (≈ 38 µM) | 2 (≈ 4.74 µM) | 2 (≈ 4.74 µM) |
